Data from PMC2902569 (Nature biotechnology, 2010).

Biological target: T1, Met30 (Saccharomyces cerevisiae, UniProt P39014)
T1 sequence (P39014 1-640): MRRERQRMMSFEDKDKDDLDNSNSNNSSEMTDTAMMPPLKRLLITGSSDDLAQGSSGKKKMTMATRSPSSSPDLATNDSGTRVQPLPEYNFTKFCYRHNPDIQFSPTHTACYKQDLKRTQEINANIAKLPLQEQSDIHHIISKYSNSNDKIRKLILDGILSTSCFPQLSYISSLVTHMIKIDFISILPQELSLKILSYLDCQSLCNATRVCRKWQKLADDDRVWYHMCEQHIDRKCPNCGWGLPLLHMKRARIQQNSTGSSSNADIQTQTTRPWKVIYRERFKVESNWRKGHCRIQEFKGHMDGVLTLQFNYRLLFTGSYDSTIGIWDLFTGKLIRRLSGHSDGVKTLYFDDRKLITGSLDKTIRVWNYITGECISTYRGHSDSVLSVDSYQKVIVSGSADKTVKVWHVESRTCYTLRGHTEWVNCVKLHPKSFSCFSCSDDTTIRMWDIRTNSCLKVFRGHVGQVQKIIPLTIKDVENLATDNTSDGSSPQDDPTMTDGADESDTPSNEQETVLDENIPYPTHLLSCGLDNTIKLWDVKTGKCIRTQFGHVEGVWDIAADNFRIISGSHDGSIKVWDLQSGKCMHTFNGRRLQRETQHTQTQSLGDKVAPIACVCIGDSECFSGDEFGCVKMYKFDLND
Test: DARTS, thermolysin or subtilisin protection, immunoblot
Type: biochemical
Conditions: yeast lysate (Skp1 present); also in vitro translated Met30

O=C1c2ccccc2-c2nc3nonc3nc21 [SMER3]
DARTS, thermolysin or subtilisin protection, immunoblot: we observed SMER3-dependent protection of Met30
